# Measured values reported in patent publication US20230278972A1, “SUBSTITUTED HALOALKYL SULFONANILIDE HERBICIDES” (FMC Corporation, priority 2020, published 2023).
# Key:
# Type in all cases: in vivo
# [1] = tested on: barnyardgrass (Echinochloa crus-galli); test: Test A preemergence, barnyardgrass; conditions: Preemergence; for Barnyardgrass plant response rating: 125 g ai/ha, visual injury on 0 to 100 scale (0 no effect, 100 complete control), approximately 10 days; for Plant response rating, Barnyardgrass: 500 g ai/ha, 0 to 100 scale (0 no effect, 100 complete control)
# Method in brief: (§1)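 Formulated with a surfactant in a non-phytotoxic solvent, compounds are applied to loam–sand pots, either to bare soil immediately after seeding (preemergence) or to seedlings of 2 to 10 cm bearing one to two leaves (postemergence).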
# [2] = tested on: kochia (Bassia scoparia); test: Test A preemergence, kochia; conditions: Preemergence; for Kochia plant response rating: 125 g ai/ha, visual injury on 0 to 100 scale (0 no effect, 100 complete control), approximately 10 days; for Plant response rating, Kochia: 500 g ai/ha, 0 to 100 scale (0 no effect, 100 complete control)
# Method in brief: as §1
# [3] = tested on: ragweed (common ragweed, Ambrosia artemisiifolia); test: Test A preemergence, ragweed; conditions: Preemergence; for Ragweed plant response rating: 125 g ai/ha, visual injury on 0 to 100 scale (0 no effect, 100 complete control), approximately 10 days; for Plant response rating, Ragweed: 500 g ai/ha, 0 to 100 scale (0 no effect, 100 complete control)
# Method in brief: as §1
# [4] = tested on: Ryegrass, Italian (Italian ryegrass, Lolium multiflorum); test: Test A preemergence, Ryegrass, Italian; conditions: Preemergence; for Ryegrass, Italian plant response rating: 125 g ai/ha, visual injury on 0 to 100 scale (0 no effect, 100 complete control), approximately 10 days; for Plant response rating, Ryegrass, Italian: 500 g ai/ha, 0 to 100 scale (0 no effect, 100 complete control)
# Method in brief: as §1
# [5] = tested on: Foxtail, Giant (giant foxtail, Setaria faberi); test: Test A preemergence, Foxtail, Giant; conditions: Preemergence; for Foxtail, Giant plant response rating: 125 g ai/ha, visual injury on 0 to 100 scale (0 no effect, 100 complete control), approximately 10 days; for Plant response rating, Foxtail, Giant: 500 g ai/ha, 0 to 100 scale (0 no effect, 100 complete control)
# Method in brief: as §1
# [6] = tested on: pigweed (Amaranthus retroflexus); test: Test A preemergence, pigweed; conditions: for Pigweed plant response rating: 125 g ai/ha, visual injury on 0 to 100 scale (0 no effect, 100 complete control), approximately 10 days; for Plant response rating, Pigweed: 500 g ai/ha, 0 to 100 scale (0 no effect, 100 complete control)
# Method in brief: (§2)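 Preemergence: seeded pots of loam plus sand received a directed soil spray. Postemergence: seedlings at one to two leaves, 2 to 10 cm high, were oversprayed. Each compound was formulated in a non-phytotoxic solvent mix that included a surfactant.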
# [7] = tested on: barnyardgrass (Echinochloa crus-galli); test: Test A postemergence, barnyardgrass; conditions: Postemergence, 0 to 100 scale (0 no effect, 100 complete control)
# Method in brief: as §2
# [8] = tested on: kochia (Bassia scoparia); test: Test A postemergence, kochia; conditions: Postemergence, 0 to 100 scale (0 no effect, 100 complete control)
# Method in brief: as §1
# [9] = tested on: ragweed (common ragweed, Ambrosia artemisiifolia); test: Test A postemergence, ragweed; conditions: Postemergence, 0 to 100 scale (0 no effect, 100 complete control)
# Method in brief: as §1
# [10] = tested on: Ryegrass, Italian (Italian ryegrass, Lolium multiflorum); test: Test A postemergence, Ryegrass, Italian; conditions: Postemergence, 0 to 100 scale (0 no effect, 100 complete control)
# Method in brief: as §1
# [11] = tested on: Foxtail, Giant (giant foxtail, Setaria faberi); test: Test A postemergence, Foxtail, Giant; conditions: Postemergence, 0 to 100 scale (0 no effect, 100 complete control)
# Method in brief: as §1
# [12] = tested on: pigweed (Amaranthus retroflexus); test: Test A postemergence, pigweed; conditions: Postemergence, 0 to 100 scale (0 no effect, 100 complete control)
# Method in brief: as §1
# [13] = tested on: wheat (Triticum aestivum); test: Test A postemergence, wheat; conditions: Postemergence, 0 to 100 scale (0 no effect, 100 complete control)
# Method in brief: as §2
# [14] = tested on: corn (Zea mays); test: Test A postemergence, corn; conditions: Postemergence, 0 to 100 scale (0 no effect, 100 complete control)
# Method in brief: as §1
# [15] = tested on: blackgrass (Alopecurus myosuroides); test: Test A postemergence, blackgrass; conditions: Postemergence, 0 to 100 scale (0 no effect, 100 complete control)
# Method in brief: as §1
# [16] = tested on: galium (catchweed bedstraw, Galium aparine); test: Test A postemergence, galium; conditions: Postemergence, 0 to 100 scale (0 no effect, 100 complete control)
# Method in brief: as §2
# [17] = 125 g ai/ha, visual injury approx. 10 days
# [18] = 500 g ai/ha, visual injury, approx. 10 days
SMILES,Barnyardgrass plant response rating [1],"Plant response rating, Barnyardgrass [1]",Kochia plant response rating [2],"Plant response rating, Kochia [2]",Ragweed plant response rating [3],"Plant response rating, Ragweed [3]","Ryegrass, Italian plant response rating [4]","Plant response rating, Ryegrass, Italian [4]","Foxtail, Giant plant response rating [5]","Plant response rating, Foxtail, Giant [5]",Pigweed plant response rating [6],"Plant response rating, Pigweed [6]","Plant response rating, Barnyardgrass [7, 17]","Plant response rating, Barnyardgrass [7, 18]","Plant response rating, Kochia [8, 17]","Plant response rating, Kochia [8, 18]","Plant response rating, Ragweed [9, 17]","Plant response rating, Ragweed [9, 18]","Plant response rating, Ryegrass, Italian [10, 17]","Plant response rating, Ryegrass, Italian [10, 18]",further results
Cc1cc(Cl)c(N(S(=O)(=O)C(F)(F)F)S(=O)(=O)C(F)(F)F)cc1-c1cn(C)c(=O)n(C)c1=O [Compound 38],90,100,80,90,70,90,100,100,100,100,40,80,60,80,60,70,80,90,60,80,"Plant response rating, Foxtail, Giant [11, 17]: 90; Plant response rating, Foxtail, Giant [11, 18]: 90; Plant response rating, Pigweed [12, 17]: 70; Plant response rating, Pigweed [12, 18]: 90; Plant response rating, Wheat [13, 17]: 70; Plant response rating, Wheat [13, 18]: 70; Plant response rating, Corn [14, 17]: 20; Plant response rating, Corn [14, 18]: 70; Plant response rating, Blackgrass [15, 17]: 80; Plant response rating, Blackgrass [15, 18]: 90; Plant response rating, Galium [16, 17]: 80; Plant response rating, Galium [16, 18]: 90"
Cc1cc(C)c(N(S(C)(=O)=O)S(=O)(=O)C(F)(F)F)cc1-c1cc(C(C)C)nn(C)c1=O [Compound 39],40,90,0,0,0,30,30,70,10,90,0,0,0,30,0,0,20,70,0,40,"Plant response rating, Foxtail, Giant [11, 17]: 0; Plant response rating, Foxtail, Giant [11, 18]: 0; Plant response rating, Pigweed [12, 17]: 0; Plant response rating, Pigweed [12, 18]: 0; Plant response rating, Wheat [13, 17]: 60; Plant response rating, Wheat [13, 18]: 60; Plant response rating, Corn [14, 17]: 0; Plant response rating, Corn [14, 18]: 0; Plant response rating, Blackgrass [15, 17]: 0; Plant response rating, Blackgrass [15, 18]: 0; Plant response rating, Galium [16, 17]: 0; Plant response rating, Galium [16, 18]: 0"
COc1cnn(-c2cc(N(S(=O)(=O)C(F)(F)F)S(=O)(=O)C(F)(F)F)c(C)cc2C)c(=O)c1OC [Compound 40],90,90,80,80,50,50,30,80,90,100,100,100,10,40,10,20,40,40,30,60,"Plant response rating, Foxtail, Giant [11, 17]: 0; Plant response rating, Foxtail, Giant [11, 18]: 10; Plant response rating, Pigweed [12, 17]: 0; Plant response rating, Pigweed [12, 18]: 30; Plant response rating, Wheat [13, 17]: 0; Plant response rating, Wheat [13, 18]: 40; Plant response rating, Corn [14, 17]: 0; Plant response rating, Corn [14, 18]: 0; Plant response rating, Blackgrass [15, 17]: 10; Plant response rating, Blackgrass [15, 18]: 10; Plant response rating, Galium [16, 17]: 20; Plant response rating, Galium [16, 18]: 70"
Cc1cc(C)c(-c2cc(C(C)C)nn(C)c2=O)cc1NS(=O)(=O)C(F)(F)F [Compound 41],50,90,0,0,30,80,60,80,10,80,0,0,0,80,0,0,40,70,60,60,"Plant response rating, Foxtail, Giant [11, 17]: 0; Plant response rating, Foxtail, Giant [11, 18]: 30; Plant response rating, Pigweed [12, 17]: 0; Plant response rating, Pigweed [12, 18]: 0; Plant response rating, Wheat [13, 17]: 50; Plant response rating, Wheat [13, 18]: 60; Plant response rating, Corn [14, 17]: 0; Plant response rating, Corn [14, 18]: 0; Plant response rating, Blackgrass [15, 17]: 0; Plant response rating, Blackgrass [15, 18]: 40; Plant response rating, Galium [16, 17]: 10; Plant response rating, Galium [16, 18]: 30"
Cc1cc(C)c(N(S(=O)(=O)C(F)(F)F)S(=O)(=O)C(F)(F)F)cc1-c1cn(C)c(=O)n(C)c1=O [Compound 42],90,100,40,70,30,80,100,100,100,100,40,80,70,80,20,30,40,80,70,80,"Plant response rating, Foxtail, Giant [11, 17]: 90; Plant response rating, Foxtail, Giant [11, 18]: 90; Plant response rating, Pigweed [12, 17]: 40; Plant response rating, Pigweed [12, 18]: 100; Plant response rating, Wheat [13, 17]: 70; Plant response rating, Wheat [13, 18]: 70; Plant response rating, Corn [14, 17]: 0; Plant response rating, Corn [14, 18]: 60; Plant response rating, Blackgrass [15, 17]: 40; Plant response rating, Blackgrass [15, 18]: 90; Plant response rating, Galium [16, 17]: 50; Plant response rating, Galium [16, 18]: 60"
